From US8513437B2, “Pyrrolidino-1,4-naphthoquinone deriviatives and their use for treating malignancies and cardiovascular diseases” (Ben Gurion University of the Negev Research and Development …, priority 2004, dated 2013)
“Also recorded” adds a separate entry of the source. Like-named read-outs stand apart in the source and are kept apart here.

Assays:
cardiomyocytes = assay: Cardiomyocyte viability (XTT) following incubation with EH48; assay type: cell-based, rat; settings: cardiomyocytes starved 16-18 h, compound 24 h, XTT 4 h, FIG. 5
Procedure: (§1) The cell viability was examined using the XTT method following kit instructions (Biological Industry, Israel). The assay is based on the ability of metabolic active cells to reduce the tetrazolium salt XTT to orange colored compound of formazan. The dye formed is water soluble and the dye intensity can be read with spectrophotometer at 450-500 nm. The intensity of the dye is proportional to the number of metabolic active cells.
(§2) The viability of the cells was measured as described above. Briefly, cells were starved for 16-18 h followed by incubation with the compound of formula II (EH48) for 24 h and incubation with XTT for an other 4 h. The assay is based on the ability of metabolic active cells to reduce the tetrazolium salt XTT to orange colored compound of formazan. The intensity of the dye is proportional to the number of metabolically active cells.

[1] = tested on: cardiomyocytes in rat heart; assay: Cardiomyocyte proliferation following direct injection in-vivo (PCNA staining); settings: direct injection into rat heart, 0.5, 5 and 50 microM, three days, versus saline
Procedure: Proliferation of cardiomyocytes was evaluated in-vivo following direct injection of EH48 in three concentrations (0.5, 5 and 50 microM) into rat heart. Three days after injections rats were sacrificed and the hearts were fixed with formaldehyde 4%. Slides of 5 micron were stained with the DNA specific marker PCNA. Only cells with morphology of cardiomyocytes (large cells with striation) that expressed the PCNA in the nucleus (brown staining) were considered as proliferate cardiomyocytes (FIG. 6A, arrows). The number of stained cells in each treatment was evaluated compared to control (saline injected) rats (FIG. 6B).

[2] = tested on: primary cardiomyocytes derived from neonatal rats; assay: Cell viability (XTT) of cardiomyocytes; assay type: cell-based, rat; settings: for IC50: 24 h incubation with compound, then XTT 4 h, read-out: ID50 Cardiomyocytes; for injury of cardiomyocytes at concentrations killing VSM cells: cardiomyocytes versus VSM cells
Procedure: (§3) Three main cell types of the cardiovascular system were evaluated: primary cardiomyocytes derived from neonatal rats primary vascular smooth muscle (VSM) cells derived from rat aorta and human umbilical vein endothelial cells. Furthermore, human colon carcinoma HT29 cells and BL6-8 melanoma cells were evaluated as representative cancer cells. The cells were prepared as described previously in Etzion S. et al.: JMCC 33 (2001) 1321-30; Granot Y. et al.: JBC 268 (1993) 9564-9; the ATCC (the Global Bioresource Center™); and Assa-Kunik et al.: J. Immunol. 171 (2003) 2945-52.
as §1
The viability of the cells was measured as described above. Briefly, cells were incubated with the compounds for 24 h followed by incubation with XTT for 4 h. The assay is based on the ability of metabolic active cells to reduce the tetrazolium salt XTT to orange colored compound of formazan. The intensity of the dye is proportional to the number of metabolically active cells. The concentration at which 50% cells remain viable, ID50, is shown in Table 1 for several compounds of the invention.

[3] = tested on: primary vascular smooth muscle (VSM) cells derived from rat aorta; assay: Cell viability (XTT) of VSM cells; assay type: cell-based; settings: 24 h incubation with compound, then XTT 4 h; read-out: ID50 VSM cells
Procedure: as §3, §1
as §2, with “incubated with the compounds” for “starved”, “24” for “16-18”, “with” for “with the compound of formula II (EH48) for 24 h and incubation with”, “for” for “for an other”, “cells. […]” for “cells.”

[4] = tested on: human umbilical vein endothelial cells; assay: Cell viability (XTT) of endothelial cells; assay type: cell-based; settings: 24 h incubation with compound, then XTT 4 h; read-out: ID50 Endothelial cells
Procedure: as §3, §1
as §2, with “incubated with the compounds” for “starved”, “24” for “16-18”, “with” for “with the compound of formula II (EH48) for 24 h and incubation with”, “for” for “for an other”, “cells. […]” for “cells.”

[5] = tested on: HT29 human colon carcinoma cells; assay: Viability of HT29 human colon carcinoma cells; assay type: cell-based; settings: 24 h incubation; read-out: ID50 HT29-colon carcinoma
Procedure: as §3, §1
HT29 human carcinoma cells were incubated for 24 h with compounds of the invention.

p38-MAPK [6] = assay: Western immunoblot, p38-MAPK phosphorylation in VSM cells; assay type: cell-based, rat; settings: 0.5-20 μM, 20 min, 37° C., FIG. 1A
Procedure: (§4) Stimulation of ERKs and p38-MAPKs with compounds of the invention was characterized in VSM cells and cardiomyocytes. […] As a positive control for ERKs activation, the cells were incubated with 10^−7M EGF for 5 minutes. […] Therefore, this compound and other derivates may be used as selective compounds to inhibit or stimulate one of the members in the MAPKs-signaling pathway.

ERKs [7] = settings: HT29 cells, 5-25 μM, 20 min to 4 h, FIG. 3A
P38 pathway = assay: Western immunoblot, p38 phosphorylation in BL6-8 melanoma cells; assay type: cell-based; settings: FIG. 3B
STAT3 = assay: Western immunoblot, STAT3 phosphorylation in VSM cells; settings: VSM cells activated with AVP, FIG. 2
Procedure: (§6) Confluent cell monolayers were growth-arrested in serum-free medium for 24 h prior to treatment with the compounds in this patent. Cells were washed twice with medium, scraped, resuspended in lysis buffer (10% glycerol, 25 mM NaCl, 0.1% Triton X-100, 50 mM NaF, 10 mM Na-pyrophosphate, 2 mM EGTA, 2 mM DTT, 20 mM p-nitro-phenylphosphate, 25 mM Tris-HCl, 2 mM Na2VO4, 10 μM PMSF, 10 μg/ml Leupeptin), and the lysate was centrifuged at 14,000 rpm for 20 min. Samples were separated by SDS-polyacrylamide gel electrophoresis, transferred to nitrocellulose membrane, and blocked for 1 h at room temperature with 5% nonfat milk in TBS-T buffer (20 mM Tris, 500 mM NaCl, and 0.01% Tween 20). The membrane was then incubated overnight at 4° C. with an appropriate dilution of anti-phospho-ERKs or anti-total ERK, anti-phospho-p38 or anti-phospho-JNK, followed by incubation for 1 h with the appropriate horseradish peroxidase-conjugated secondary antibody. The immunoblot signal was visualized through enhanced chemiluminescence.

ERKs survival pathway = assay: Western immunoblot, ERKs phosphorylation in BL6-8 melanoma cells; settings: FIG. 3B
Procedure: as §6
The cells were starved for 24 h in serum free medium, incubated with the selected compound (5-25 μM) for 20 min to 4 h (dependent on the compound examined), 37° C., harvested, centrifuged and suspended in the lysis buffer. The MAPKs stimulation was estimated using the western immunoblot analysis as described above.

ERKs [8] = assay: Western immunoblot, ERKs phosphorylation in VSM cells; assay type: cell-based, rat; settings: 0.5-20 μM, 20 min, 37° C., FIG. 1A
Procedure: as §4

ERKs [9] = assay: Western immunoblot, ERKs phosphorylation in cardiomyocytes; assay type: cell-based, rat; settings: 0.5-10 μM, 20 min, 37° C., FIG. 1B
Procedure: (§5) The effect of the compounds of formula I on ERKs and p38-MAPK was checked in cardiomycetes. […] Stimulation of the MAPKs members by compounds of the invention was compared with the stimulation by the growth factor Ang (Angiotensin II, 10 nM, 10 min), which is known as MAPKs stimulator in cardiomyocytes. […] ERKs and p38 were related to the total amount of ERKs proteins in the sample. […] As explained, the ERKs signaling pathway participate in the cell survival and proliferation. Administering the compounds stimulating this pathways after myocardial infarction may accelerate cell survival of the cardiomyoctes; alternatively, said compounds may be administered as a preventing drug before the injury occurs in risk cases.

p38-MAPK [10] = assay: Western immunoblot, p38-MAPK phosphorylation in cardiomyocytes; assay type: cell-based, rat; settings: 0.5-10 μM, 20 min, 37° C., FIG. 1B
Procedure: as §5

[11] = tested on: HT29 human colon carcinoma cells; assay: Apoptosis of HT29 cells (DNA fragmentation, PI staining); assay type: cell-based; settings: 48 h incubation
Procedure: The various cell types were incubated with a compound of formula I (0.3-25 μM) for 24-48 h. Untreated cells were served as control. After trypsinization, cells were centrifuged for 5 min, 1500 g and resuspended in DMEM medium contains 10% FCS. Sample of the cells (25 μl) was added to 2 μl mixture of (5 μg/ml) ethidium bromide and (5 μg/ml) acridine orange in PBS. Sample of the stained cells was examined under fluorescent microscope. Ethidium bromide binds to the DNA of damaged cells and stains it orange, while acridine orange stains the nucleus in green. Apoptotic cells appear as nuclei with orange staining of fragmented DNA.
HT29 cells, either untreated or treated 48 h with a compound of formula I (25 μM), after trypsinization, were collected and centrifuged for 5 min, 800 g. The pellet was resuspended with PBS and centrifuged again. 60 μl of PBS was added to the pellet followed by addition of 360 μl of ice-cold 80% ethanol and incubating overnight at −20° C. The cells were thawed on ice and centrifuged for 5 min 800 g 4° C. […] Analysis was carried out by fluorescence-activated flow cytometer (FACSscan).
Apoptosis was evaluated following incubation of 48 h with compound TW 69 using DNA fragmentation method (ethidium bromide staining) and PI (propidium iodide) staining assay, as described above. […]

SMILES	XTT dye intensity (cell survival and viability) (cardiomyocytes)	survival and proliferation of cardiomyocytes in-vivo (PCNA-stained cells) [1]	IC50 [2] [nM]	injury of cardiomyocytes at concentrations killing VSM cells [2]	IC50 [3] [nM]	IC50 [4] [nM]	IC50 [5] [nM]	stimulation of p38-MAPK signaling (p38-MAPK [6])	stimulation of ERKs signaling pathway (ERKs [7])	stimulation of P38 pathway (P38 pathway)	inhibition of STAT3 phosphorylation (STAT3)	stimulation of ERKs survival pathway (ERKs survival pathway)	stimulation of ERKs signaling (ERKs [8])	stimulation of ERKs signaling pathway (ERKs [9])	stimulation of p38-MAPK signaling pathway (p38-MAPK [10])	acceleration of apoptotic response [11] [%]
COC(=O)[C@@H]1CCCN1C1=C(Cl)C(=O)c2ccccc2C1=O [EH48, 2-chloro-3-(L-prolinemethyl ester)-1,4-naphthoquinone]	increase in cell survival and viability; also recorded: XTT elevation	positive in-vivo effect	–	–	–	–	–	–	–	–	–	–	–	–	–	–
O=C1C(Nc2ccc(O)cc2)=C(N2CCCC2)C(=O)c2ccccc21 [TW96, 2-pyrrolidine-3-(p-hydroxy-phenylamino)-1,4-naphthoquinone]	–	–	400	did not injure the cardiomyocytes at concentrations killing VSM cells	200	500	500	stimulates mostly the P38-MAPK	without significantly influencing the ERKs signaling pathway	specifically stimulate the P38 pathway	strong inhibitor of STAT3 phosphorylation	without stimulating the ERKs survival pathway	–	–	–	–
Cc1ccc(NC2=C(Cl)C(=O)c3ccccc3C2=O)cc1 [TW69, 2-chloro-3-(p-methylphenylamino)-1,4-naphthoquinone]	–	–	–	did not injure the cardiomyocytes at concentrations killing VSM cells	–	–	–	stimulate both ERKs and p38-MAPKs signaling	–	–	–	–	stimulate both ERKs and p38-MAPKs signaling	stimulate mainly the ERKs signaling pathway; also recorded: induced the formation of phosphorylated ERKs protein	without significantly influencing the p38-MAPK signaling pathway; also recorded: without inducing the formation of phosphorylated p38 protein	30
Cc1ccc(NC2=C(N3CCCC3)C(=O)c3ccccc3C2=O)cc1 [TW85, 2-pyrrolidine-3-(p-methylphenylamino)-1,4-naphthoquinone]	–	–	> 20000	–	3600	800	3500	–	–	–	–	–	–	stimulates the ERKs signaling pathway; also recorded: induced the formation of phosphorylated ERKs protein	not the p38-MAPK signaling pathway; also recorded: without inducing the formation of phosphorylated p38 protein	–
